Assay [1] addresses T1, 5HT2B receptors (Homo sapiens, UniProt P41595).
T1 construct: expressed in transfected cells; host or cells: CHO-K1 cells
Nature of the assay: Human 5-HT2B functional high throughput screening assay in CHO-K1 cells (calcium flux). As to conditions: for EC50: CHO-K1 cells, calcium flux; call rule not given here. It is filed as cell-based. The essentials:
(§1)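 Serum-starved CHO-K1 cells carrying the receptor; Ca4 dye, 60 min RT. Test compound added after a 10 s baseline, fluorescence followed for 3 min. EC50 from 4-parameter fit; Emax given as % of serotonin effect.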

In assay [2] the target is T2, 5HT2C receptors (Homo sapiens, UniProt P28335).
T2 sequence (P28335 33-458): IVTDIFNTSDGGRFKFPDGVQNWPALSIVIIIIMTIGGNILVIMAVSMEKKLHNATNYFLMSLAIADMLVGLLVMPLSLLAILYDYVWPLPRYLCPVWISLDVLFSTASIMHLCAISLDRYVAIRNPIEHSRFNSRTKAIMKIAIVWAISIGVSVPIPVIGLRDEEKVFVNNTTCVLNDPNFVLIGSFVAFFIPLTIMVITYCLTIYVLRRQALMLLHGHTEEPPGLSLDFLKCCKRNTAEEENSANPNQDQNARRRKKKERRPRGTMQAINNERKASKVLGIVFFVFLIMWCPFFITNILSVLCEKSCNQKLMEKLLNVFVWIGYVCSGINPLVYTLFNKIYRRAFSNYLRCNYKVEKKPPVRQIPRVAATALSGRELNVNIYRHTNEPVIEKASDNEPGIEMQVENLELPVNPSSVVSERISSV
Nature of the assay: Human 5-HT2C functional high throughput screening assay in CHO-K1 cells (calcium flux). As to conditions: for EC50: CHO-K1 cells, calcium flux; for Emax: CHO-K1, 5-HT2C, maximum functional response as percentage relative to the effect of serotonin. Also on record: expressed in transfected cells; host or cells: CHO-K1 cells. It is filed as cell-based. The essentials:
as §1
A general note: Calcium assays in cells follow changes in intracellular calcium, usually with a dye or a luminescent sensor.

[3] abbreviates: 5-HT2B agonist activity, read-out: EC50.
The mark [4] stands for this setting: 5-HT2B, maximum functional response as percentage relative to the effect of serotonin.
The mark [5] stands for this setting: 5-HT2C agonist activity, read-out: EC50.
Where [6] appears, read: CHO-K1, 5-HT2B, maximum functional response as percentage relative to the effect of serotonin, read-out: Emax.

The values that follow come from patent US8846951B2 (AbbVie Inc., priority 2009, dated 2014).

SMILES strings stand for the structures. Read-outs that look alike come from different tables or passages of the source.

T1 sequence (P41595 whole entry): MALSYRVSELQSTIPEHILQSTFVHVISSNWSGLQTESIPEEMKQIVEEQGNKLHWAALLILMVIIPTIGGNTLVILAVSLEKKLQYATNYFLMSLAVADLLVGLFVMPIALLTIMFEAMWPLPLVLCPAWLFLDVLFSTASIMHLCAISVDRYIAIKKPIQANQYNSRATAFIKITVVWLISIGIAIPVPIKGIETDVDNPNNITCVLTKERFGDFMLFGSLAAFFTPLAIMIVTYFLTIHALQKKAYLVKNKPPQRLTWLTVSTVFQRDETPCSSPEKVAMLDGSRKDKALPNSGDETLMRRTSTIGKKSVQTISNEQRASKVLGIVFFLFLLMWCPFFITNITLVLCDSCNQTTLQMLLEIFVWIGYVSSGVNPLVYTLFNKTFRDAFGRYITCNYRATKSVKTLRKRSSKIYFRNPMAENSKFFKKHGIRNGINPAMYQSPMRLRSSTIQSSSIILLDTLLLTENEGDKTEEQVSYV

Regarding `CN1C[C@H]2CNC(=O)c3cc(-c4cccnc4)ccc3[C@@H]2C1` (relative stereo) [Example 143, Trans-2-methyl-8-(pyridin-3-yl)-1,2,3,3a,4,5-hexahydrobenzo[e]pyrrolo[3,4-c]azepin-6(10bH)-one], the results for the EC50 in assay [1] (setting [3]) and in assay [2] (setting [5]) were above 10000 nM and 300 nM, respectively. Besides, the Emax (commonly the size of the effect at its maximum, as opposed to the concentration needed) is “inactive” in assay [1] (setting [4]) and above 120% in assay [2].

Turning to `O=C1NC[C@@H]2CNC[C@H]2c2cccnc21` (relative stereo) [Example 157, Trans-1,2,3,3a,4,5-hexahydropyrido[3,2-e]pyrrolo[3,4-c]azepin-6(10bH)-one], the results for the EC50 in assay [1] (setting [3]) and in assay [2] (setting [5]) were above 10000 nM and 3000 nM, respectively. Besides, the Emax entry in assay [1] (setting [4]) is “inactive”; in assay [2], 110%.

For `CCc1ccc(-c2ccc3c(c2)C(=O)NC[C@@H]2CN(C)C[C@@H]32)cc1` (relative stereo) [Example 139, Trans-8-(4-ethylphenyl)-2-methyl-1,2,3,3a,4,5-hexahydrobenzo[e]pyrrolo[3,4-c]azepin-6(10bH)-one], the EC50 (usually the midpoint of the concentration-response curve) in assay [1] (setting [3]) is above 10000 nM; in assay [2] (setting [5]), 30 nM. Besides, the Emax entry in assay [1] (setting [4]) was “inactive”; in assay [2] (read-out: Emax), above 120%.

On to `CS(=O)(=O)c1ccccc1-c1ccc2c(c1)C(=O)NC[C@@H]1CNC[C@@H]21` (relative stereo) [Example 231, Trans-8-(2-(methylsulfonyl)phenyl)-1,2,3,3a,4,5-hexahydrobenzo[c]pyrrolo[3,4-e]azepin-6(10bH)-one], for which the EC50 in assay [1] (setting [3]) was above 10000 nM; in assay [2] (setting [5]), 900 nM. The maximal effect (Emax) entry in assay [1] (setting [4]) is “inactive”; in assay [2] (read-out: Emax) it was 105%.

Take `O=S(=O)(c1cccc(C(F)(F)F)c1)N1Cc2cccnc2[C@@H]2CNC[C@H]2C1` (relative stereo) [Example 345, Trans-6-{[3-(trifluoromethyl)phenyl]sulfonyl}-5,6,7,7a,8,9,10,10a-octahydropyrido[3,2-c]pyrrolo[3,4-e]azepine]: the EC50 in assay [1] (setting [3]) was 200 nM; in assay [2] (setting [5]) it was 400 nM. The Emax was 90% in assay [1] (setting [6]) and 80% in assay [2] (read-out: Emax).

As to `O=C1NC[C@@H]2CN(Cc3ccccc3)C[C@H]2c2ccc(-c3nnco3)cc21` (relative stereo) [Example 136, Trans-2-benzyl-8-(1,3,4-oxadiazol-2-yl)-1,2,3,3a,4,5-hexahydrobenzo[e]pyrrolo[3,4-c]azepin-6(10bH)-one], the values for the EC50 in assay [1] (setting [3]) and in assay [2] (setting [5]) were above 10000 nM and 2000 nM, respectively. Further, the Emax entry in assay [1] (setting [4]) was “inactive”; in assay [2] (read-out: Emax) it was 110%.

As to `COc1ccc2c(c1)C(=O)N(C)C[C@@H]1CNC[C@@H]21` (relative stereo) [Example 188, Trans-8-methoxy-5-methyl-1,2,3,3a,4,5-hexahydrobenzo[e]pyrrolo[3,4-c]azepin-6(10bH)-one], the values for the Emax in assay [1] (CHO-K1) and in assay [2] were 90% and above 120%, respectively. Besides, the half-maximal effective concentration (EC50) in assay [1] (EC50, 5-HT2B agonist activity) came out at 1000 nM; in assay [2] (EC50, 5-HT2C agonist activity) it was 60 nM.

`C[C@@H](O)c1cc(-c2ccc3c(c2)C(=O)NC[C@H]2CN(C)C[C@H]32)ccc1F` (single isomer, unassigned) [Example 353]: the results for the EC50 in assay [1] (setting [3]) and in assay [2] (setting [5]) were above 10000 nM and 0.3 nM, respectively. In addition, the Emax entry was “inactive” in assay [1] (setting [4]) and 110% in assay [2] (read-out: Emax).

`CN1C[C@H]2CNC(=O)c3cc(-c4cccc(S(C)(=O)=O)c4)ccc3[C@@H]2C1` [Example 229, (3aR,10bR)-2-Methyl-8-(3-(methylsulfonyl)phenyl)-1,2,3,3a,4,5-hexahydrobenzo[c]pyrrolo[3,4-e]azepin-6(10bH)-one]: in assay [1] (setting [3]), the EC50 was above 10000 nM. Moreover, the figures for the Emax result in assay [1] (setting [4]) and in assay [2] (read-out: Emax) were “inactive” and 90%, respectively.

Consider `Nc1ccc2c(c1)C(=O)NC[C@@H]1CNC[C@H]21` (relative stereo) [Example 145, Cis-8-amino-1,2,3,3a,4,5-hexahydrobenzo[e]pyrrolo[3,4-c]azepin-6(10bH)-one], for which the Emax entry was “inactive” in assay [1] (setting [4]) and 15% in assay [2]. Moreover, the half-maximal effective concentration (EC50) is above 10000 nM in assay [1] (EC50, 5-HT2B agonist activity) and 3000 nM in assay [2] (EC50, 5-HT2C agonist activity).

In the case of `CN1C[C@H]2CNC(=O)c3cc(-c4ccc5nonc5c4)ccc3[C@@H]2C1` (relative stereo) [Example 195, Trans-8-(benzo[c][1,2,5]oxadiazol-5-yl)-2-methyl-1,2,3,3a,4,5-hexahydrobenzo[e]pyrrolo[3,4-c]azepin-6(10bH)-one], the EC50 in assay [1] (setting [3]) was above 10000 nM; in assay [2] (setting [5]), 10 nM. Besides, the Emax entry is “inactive” in assay [1] (setting [4]) and above 120% in assay [2] (read-out: Emax).

Turning to `FC(F)(F)Oc1cccc2c1OCC[C@H]1CNC[C@H]21` (relative stereo) [Example 285, Trans-7-(trifluoromethoxy)-2,3,3a,4,5,10b-hexahydro-1H-[1]benzoxepino[4,5-c]pyrrole], the Emax in assay [1] (CHO-K1) is 90%; in assay [2], 100%. Further, the EC50 is 9 nM in assay [1] (EC50, 5-HT2B agonist activity) and below 0.1 nM in assay [2] (EC50, 5-HT2C agonist activity).

Turning to `CN1C[C@H]2CNC(=O)c3cc(-c4ccc(F)c(F)c4)ccc3[C@@H]2C1` (relative stereo) [Example 78, Trans-8-(3,4-difluorophenyl)-2-methyl-1,2,3,3a,4,5-hexahydrobenzo[e]pyrrolo[3,4-c]azepin-6(10bH)-one], the EC50 in assay [1] (setting [3]) is above 10000 nM; in assay [2] (setting [5]), 6.6 nM. Further, the Emax result in assay [1] (setting [4]) is “inactive”; in assay [2] (read-out: Emax), above 120%.

In the case of `N#Cc1cccc(-c2ccc3c(c2)C(=O)NC[C@@H]2CNC[C@@H]32)c1` (relative stereo) [Example 239, 3-(Trans-6-oxo-1,2,3,3a,4,5,6,10b-octahydrobenzo[c]pyrrolo[3,4-e]azepin-8-yl)benzonitrile], the EC50 in assay [1] (setting [3]) was 2000 nM; in assay [2] (setting [5]), 0.8 nM. The results for the Emax in assay [1] (setting [6]) and in assay [2] (read-out: Emax) were 20% and above 120%, respectively.

Turning to `CC(O)c1cccc(-c2ccc3c(c2)C(=O)N(C)C[C@@H]2CN(C)C[C@@H]32)c1` (relative stereo) [Example 193, Trans-8-(3-(1-hydroxyethyl)phenyl)-2,5-dimethyl-1,2,3,3a,4,5-hexahydrobenzo[e]pyrrolo[3,4-c]azepin-6(10bH)-one], the EC50 in assay [1] (setting [3]) is above 10000 nM; in assay [2] (setting [5]), 20 nM. For the same molecule, the Emax result in assay [1] (setting [4]) is “inactive”; in assay [2] (read-out: Emax) it was above 120%.

For `O=C1NC[C@@H]2CNC[C@H]2c2ccc(-c3cccc(CCO)c3)cc21` (relative stereo) [Example 252, Trans-8-(3-(2-hydroxyethyl)phenyl)-1,2,3,3a,4,5-hexahydrobenzo[c]pyrrolo[3,4-e]azepin-6(10bH)-one], the results for the EC50 in assay [1] (setting [3]) and in assay [2] (setting [5]) were above 10000 nM and 0.4 nM, respectively. Besides, the Emax result in assay [1] (setting [4]) is “inactive”; in assay [2] (read-out: Emax), above 120%.

Turning to `Cc1cc(C)c(S(=O)(=O)N2Cc3cccnc3[C@@H]3CNC[C@H]3C2)c(C)c1` (relative stereo) [Example 363, Trans-6-(mesitylsulfonyl)-5,6,7,7a,8,9,10,10a-octahydropyrido[3,2-c]pyrrolo[3,4-e]azepine], the EC50 was determined as 1000 nM in assay [1] (setting [3]) and 200 nM in assay [2] (setting [5]). Also, the Emax in assay [1] (setting [6]) is 15%; in assay [2] (read-out: Emax), 65%.
